Measured values from patent US20060189624A1, “Novel combination for treating sexual dysfunction” (Bayer Aktiengesellschaft, priority 1999, published 2006).

Tested on: adult male rabbits of the animal strain HsdHHL Watanables
Test: Erection (length of the protruding penis) in hypercholesterolemic rabbits after cGMP PDE inhibitor, with or without antilipemic pretreatment
Format: in vivo, rabbit
Conditions: cerivastatin sodium 1 mg/kg s.c. for 7 days
Procedure: In a placebo-controlled study, twelve adult male rabbits of the animal strain HsdHHL Watanables having a body weight of 3-5 kg, which, owing to breeding, suffer from hypercholesterolemia and arteriosclerosis, were treated with a selective cGMP PDE inhibitor (3 mg/kg, intravenously).
The animals had free access to water and, for 2 hours per day, to feed. The animals were kept in a 10/14 hour day/night rhythm (light on from 8 am onwards), and the ambient temperature was 22 to 24° C.
The selective cGMP PDE inhibitor used was 2-[2-ethoxy-5-(4-ethyl-piperazine-1-sulfonyl)-phenyl]-5-methyl-7-propyl-3H-imidazo[5,1-f][1,2,4]triazin-4-one hydrochloride trihydrate (Ex. 336 of WO-A-99/24433).
For intravenous injection, the PDE inhibitor was dissolved in physiological saline (0.9% by volume).
For seven days prior to the treatment with the PDE inhibitor, i.e. for 7 successive days, an antilipemic, i.e. cerivastatin sodium (i.e. the monosodium salt of cerivastatin) was administered subcutaneously to six of the twelve rabbits (1 mg/kg of body weight, cerivastatin sodium dissolved in physiological saline). […]
The erection was evaluated by measuring the length of the protruding penis using a vernier caliper. […] To this end, the animals were in each case removed from the cage, held by neck hair and hind legs, turned onto their back and measured. […]

With COCc1c(C(C)C)nc(C(C)C)c(/C=C/[C@@H](O)C[C@@H](O)CC(=O)O)c1-c1ccc(F)cc1 [cerivastatin sodium] the “erection 1 day after the cerivastatin sodium pretreatment had ended compared with 3 days after (FIG. 2, upper vs middle curve)” value (then PDE inhibitor 3 mg/kg i.v., 1 day vs 3 days after end of pretreatment) was “still more pronounced” and the “erection after administration of the PDE inhibitor, compared with rabbits not pretreated with the antilipemic (FIG. 2)” value (then PDE inhibitor (Ex. 336 of WO-A-99/24433) 3 mg/kg i.v. 1 day and 3 days after pretreatment ended, measured 5-120 min, control saline pretreatment) was “considerably more pronounced erection”.
